Results taken from patent EP2951180B1, “2,6,7,8 SUBSTITUTED PURINES AS HDM2 INHIBITORS” (Merck Sharp & Dohme Corp., priority 2013, dated 2014).

What follows are compounds tested against T1, HDM2 (Homo sapiens, UniProt Q00987) (assay: FRET assay (HDM2 inhibition; method not described in this part)). Settings: Table 1.
T1 construct: Thioredoxin (N); made in house; host or cells: E. coli strain BL21(DE3)Rosetta
Type: binding

T1 sequence (Q00987 17-125): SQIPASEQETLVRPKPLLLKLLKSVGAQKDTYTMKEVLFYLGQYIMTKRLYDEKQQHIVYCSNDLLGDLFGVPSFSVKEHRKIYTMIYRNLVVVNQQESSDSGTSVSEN

First: C[C@@H](Nc1nc(C(=O)O)nc2nc(-c3ccc4occc4c3)n(Cc3ccc(C(F)(F)F)cc3)c12)C1CCC1 [Example 1.117, 8-(1-benzofuran-5-yl)-6-{[(1R)-1-cyclobutylethyl]amino}-7-[4-(trifluoromethyl)benzyl]-7H-purine-2-carboxylic acid]
Second: Cc1cc(-c2nc3nc(C(=O)O)nc(N[C@H](C)C4CCC4)c3n2Cc2ccc(C(F)(F)F)cc2)ccc1F [Example 1.137, 6-{[(1R)-1-cyclobutylethyl]amino}-8-(4-fluoro-3-methylphenyl)-7-[4-(trifluoromethyl)benzyl]-7H-purine-2-carboxylic acid]
The IC50 of the first is 3-fold lower: 16.7 nM for the first, 49.7 nM for the second. The first is the more potent here.

First: Cc1cc(-c2nc3nc(C(=O)O)nc(N[C@H](C)C4CC4)c3n2Cc2ccc(C(F)(F)F)cc2)ccn1 [Example 1.118, 6-{[(1R)-1-cyclopropylethyl]amino} -8-(2-methylpyridin-4-yl)-7-[4-(trifluoromethyl)benzyl]-7H-purine-2-carboxylic acid]
Second: Cc1cc(C)cc(-c2nc3nc(C(=O)O)nc(N[C@H](C)C4CCC4)c3n2Cc2ccc(C(F)(F)F)cc2)c1 [Example 1.131, 6-{[(1R)-1-cyclobutylethyl]amino}-8-(3,5-dimethylphenyl)-7-[4-(trifluoromethyl)benzyl]-7H-purine-2-carboxylic acid]
The IC50 of the first is 3.7-fold higher: 1370 nM for the first, 369 nM for the second.

Going from `COc1ccc(C)cc1-c1nc2nc(C(=O)O)nc(N[C@H](C)C3CCC3)c2n1Cc1ccc(C(F)(F)F)cc1` [Example 1.119, 6-{[(1R)-1-cyclobutylethyl]amino}-8-(2-methoxy-5-methylphenyl)-7-[4-(trifluoromethyl)benzyl]-7H-purine-2-carboxylic acid] to `CCOc1ccc(C)cc1-c1nc2nc(C(=O)O)nc(N[C@H](C)C3CCC3)c2n1Cc1ccc(C(F)(F)F)cc1` [Example 1.138, 6-{[(1R)-1-cyclobutylethyl]amino}-8-(2-ethoxy-5-methylphenyl)-7-[4-(trifluoromethyl)benzyl]-7H-purine-2-carboxylic acid], the IC50 rises from 9.97 nM to 15.8 nM (1.6-fold).

Compared with `Cc1ccc(Cl)c(-c2nc3nc(C(=O)O)nc(N[C@H](C)C4CCC4)c3n2Cc2ccc(C(F)(F)F)cc2)c1` [Example 1.120, 8-(2-chloro-5-methylphenyl)-6-{[(1R)-1-cyclobutylethyl]amino}-7-[4-(trifluoromethyl)benzyl] - 7H-purine-2-carboxylic acid], `Cc1ccc(Cl)cc1-c1nc2nc(C(=O)O)nc(N[C@H](C)C3CCC3)c2n1Cc1ccc(C(F)(F)F)cc1` [Example 1.132, 8-(5-chloro-2-methylphenyl)-6-{[(1R)-1-cyclobutylethyl]amino}-7-[4-(trifluoromethyl)benzyl]-7H-purine-2-carboxylic acid] is 50-fold higher in IC50: 10.4 nM for the first, 524 nM for the second.

First: C[C@@H](Nc1nc(C(=O)O)nc2nc(-c3ccc4c(c3)CCO4)n(Cc3ccc(C(F)(F)F)cc3)c12)C1CCC1 [Example 1.121, 6-{[(1R)-1-cyclobutylethyl]amino}-8-(2,3-dihydro-1-benzofuran-5-yl)-7-[4-(trifluoromethyl)benzyl]-7H-purine-2-carboxylic acid]
Second: C[C@@H](Nc1nc(C(=O)O)nc2nc(-c3ccc4c(c3)OCCN4C)n(Cc3ccc(C(F)(F)F)cc3)c12)C1CCC1 [Example 1.125, 6-{[(1R)-1-cyclobutylethyl]amino}-8-(4-methyl-3,4-dihydro-2H-1,4-benzoxazin-7-yl)-7-[4-(trifluoromethyl)benzyl]-7H-purine-2-carboxylic acid]
The IC50 of the first is 15-fold lower: 7.81 nM for the first, 116 nM for the second. The first is the more potent here.

First: C[C@@H](Nc1nc(C(=O)O)nc2nc(-c3cccc(C(F)(F)F)n3)n(Cc3ccc(C(F)(F)F)cc3)c12)C1CCC1 [Example 1.122, 6-{[(1R)-1-cyclobutylethyl]amino}-7-[4-(trifluoromethyl)benzyl]-8-[6-(trifluoromethyl)pyridin-2-yl]-7H-purine-2-carboxylic acid]
Second: C[C@@H](Nc1nc(C(=O)O)nc2nc(-c3ncccc3C(F)(F)F)n(Cc3ccc(C(F)(F)F)cc3)c12)C1CCC1 [Example 1.135, 6-{[(1R)-1-cyclobutylethyl]amino}-7-[4-(trifluoromethyl)benzyl]-8-[3-(trifluoromethyl)pyridin-2-yl]-7H-purine-2-carboxylic acid]
The IC50 of the first is 2.3-fold lower: 21.2 nM for the first, 47.9 nM for the second.

`COc1cc(C)cc(-c2nc3nc(C(=O)O)nc(N[C@H](C)C4CCC4)c3n2Cc2ccc(C(F)(F)F)cc2)c1` [Example 1.123, 6-{[(1R)-1-cyclobutylethyl]amino}-8-(3-methoxy-5-methylphenyl)-7-[4-(trifluoromethyl)benzyl]-7H-purine-2-carboxylic acid] and `COc1c(C)cc(-c2nc3nc(C(=O)O)nc(N[C@H](C)C4CCC4)c3n2Cc2ccc(C(F)(F)F)cc2)cc1C` [Example 1.134, 6-{[(1R)-1-cyclobutylethyl]amino}-8-(4-methoxy-3,5-dimethylphenyl)-7-[4-(trifluoromethyl)benzyl]-7H-purine-2-carboxylic acid] are within 1.5-fold of each other in IC50: 53.6 nM for the first, 56.2 nM for the second.

First: COc1cc(-c2nc3nc(C(=O)O)nc(N[C@H](C)C4CCC4)c3n2Cc2ccc(C(F)(F)F)cc2)ccc1Cl [Example 1.124, 8-(4-chloro-3-methoxyphenyl)-6-{[(1R)-1-cyclobutylethyl]amino}-7-[4-(trifluoromethyl)benzyl]-7H-purine-2-carboxylic acid]
Second: COc1ccc(-c2nc3nc(C(=O)O)nc(N[C@H](C)C4CCC4)c3n2Cc2ccc(C(F)(F)F)cc2)c(F)c1 [Example 1.136, 6-{[(1R)-1-cyclobutylethyl]amino}-8-(2-fluoro-4-methoxyphenyl)-7-[4-(trifluoromethyl)benzyl]-7H-purine-2-carboxylic acid]
The IC50 of the first is 4.7-fold lower: 26.4 nM for the first, 125 nM for the second.

Going from `Cc1cccc(-c2nc3nc(C(=O)O)nc(N[C@H](C)C4CCC4)c3n2Cc2ccc(C(F)(F)F)cc2)c1C` [Example 1.126, 6-{[(1R)-1-cyclobutylethyl]amino}-8-(2,3-dimethylphenyl)-7-[4-(trifluoromethyl)benzyl]-7H-purine-2-carboxylic acid] to `Cc1cc(OC(F)(F)F)ccc1-c1nc2nc(C(=O)O)nc(N[C@H](C)C3CCC3)c2n1Cc1ccc(C(F)(F)F)cc1` [Example 1.129, 6-{[(1R)-1-cyclobutylethyl]amino}-8-[2-methyl-4-(trifluoromethoxy)phenyl]-7-[4-(trifluoromethyl)benzyl]-7H-purine-2-carboxylic acid], the IC50 rises from 18 nM to 46 nM (2.6-fold). The first is the more potent here.

Going from `CC(C)Oc1cccc(-c2nc3nc(C(=O)O)nc(N[C@H](C)C4CCC4)c3n2Cc2ccc(C(F)(F)F)cc2)c1` [Example 1.127, 6-{[(1R)-1-cyclobutylethyl]amino}-8-[3-(1-methylethoxy)phenyl]-7-[4-(trifluoromethyl)benzyl]-7H-purine-2-carboxylic acid] to `COc1ccc2cc(-c3nc4nc(C(=O)O)nc(N[C@H](C)C5CCC5)c4n3Cc3ccc(C(F)(F)F)cc3)ccc2c1` [Example 1.133, 6-{[(1R)-1-cyclobutylethyl]amino}-8-(6-methoxynaphthalen-2-yl)-7-[4-(trifluoromethyl)benzyl]-7H-purine-2-carboxylic acid], the IC50 rises from 38.7 nM to 73.3 nM (1.9-fold). The first is the more potent here.

First: C[C@@H](Nc1nc(C(=O)O)nc2nc(-c3cc(C(C)(C)C)cc(C(C)(C)C)c3)n(Cc3ccc(C(F)(F)F)cc3)c12)C1CCC1 [Example 1.128, 6-{[(1R)-1-cyclobutylethyl]amino}-8-(3,5-di-tert-butylphenyl)-7-[4-(trifluoromethyl)benzyl]-7H-purine-2-carboxylic acid]
Second: C[C@@H](Nc1nc(C(=O)O)nc2nc(-c3cccc(Nc4ccccc4)c3)n(Cc3ccc(C(F)(F)F)cc3)c12)C1CCC1 [Example 1.130, 6-{[(1R)-1-cyclobutylethyl]amino}-8-[3-(phenylamino)phenyl]-7-[4-(trifluoromethyl)benzyl]-7H-purine-2-carboxylic acid]
The IC50 of the first is 2.9-fold higher: 224 nM for the first, 76.3 nM for the second.

Same assay, conditions: Table 2

`COc1cccc(-c2nc3nc(C(=O)O)nc(N[C@H](C)C4CCC4)c3n2Cc2ccc(C(F)(F)F)cc2)c1` [Example 2.1, (R)-6-((1-cyclobutylethyl)amino)-8-(3-methoxyphenyl)-7-(4-(trifluoromethyl)benzyl)-7H-purine-2-carboxylic acid] and `Cc1cccc(-c2nc3nc(C(=O)O)nc(N[C@H](C)C4CC4)c3n2Cc2ccc(C(F)(F)F)cc2)c1` [Example 2.8, 6-{[(1R)-1-cyclopropylethyl]amino}-8-(3-methylphenyl)-7-[4-(trifluoromethyl)benzyl]-7H-purine-2-carboxylic acid] are within 1.5-fold of each other in IC50: 37.5 nM for the first, 28.4 nM for the second.

Going from `Cc1cc(C2CC2)ccc1-c1nc2nc(C(=O)O)nc(N[C@H](C)C3CCC3)c2n1Cc1ccc(C(F)(F)F)cc1` [Example 2.2, (R)-6-((1-cyclobutylethyl)amino)-8-(4-cyclopropyl-2-methylphenyl)-7-(4-(trifluoromethyl)benzyl)-7H-purine-2-carboxylic acid] to `C[C@@H](Nc1nc(C(=O)O)nc2nc(C3CCCCC3)n(Cc3ccc(C(F)(F)F)cc3)c12)C1CCC1` [Example 2.4, (R)-6-((1-cyclobutylethyl)amino)-8-cyclohexyl-7-(4-(trifluoromethyl)benzyl)-7H-purine-2-carboxylic acid], the IC50 falls from 151 nM to 11.5 nM (13-fold).

Going from `C[C@@H](Nc1nc(C(=O)O)nc2nc(Cc3ccccc3)n(Cc3ccc(C(F)(F)F)cc3)c12)C1CCC1` [Example 2.3, (R)-8-benzyl-6-((1-cyclobutylethyl)amino)-7-(4-(trifluoromethyl)benzyl)-7H-purine-2-carboxylic acid] to `Cc1cccc(-c2nc3nc(C(=O)O)nc(N[C@H](C)C4CC4)c3n2Cc2ccc(Cl)cc2)c1` [Example 2.6, 7-(4-chlorobenzyl)-6-{[(1R)-1-cyclopropylethyl]amino}-8-(3-methylphenyl)-7H-purine-2-carboxylic acid], the IC50 rises from 3.66 nM to 209 nM (57-fold).

`C[C@@H](Nc1nc(C(=O)O)nc2nc(-c3cccc(Cl)c3)n(Cc3ccc(Cl)cc3)c12)C1CC1` [Example 2.5, 7-(4-chlorobenzyl)-8-(3-chlorophenyl)-6-{[(1R)-1-cyclopropylethyl]amino}-7H-purine-2-carboxylic acid] and `C[C@@H](Nc1nc(C(=O)O)nc2nc(-c3ccc4sccc4c3)n(Cc3ccc(Cl)cc3)c12)C1CC1` [Example 2.7, 8-(1-benzothiophen-5-yl)-7-(4-chlorobenzyl)-6-{[(1R)-1-cyclopropylethyl]amino}-7H-purine-2-carboxylic acid] are within 1.5-fold of each other in IC50: 218 nM for the first, 259 nM for the second.
